{"source": "patent US8653041B2", "about": "“Antibacterial aminoglycoside analogs” (Achaogen, Inc., priority 2010, dated 2014)", "key": {"[1]": {"tested_on": "Acinetobacter baumannii", "assay": "MIC, CLSI broth microdilution, Acinetobacter baumannii panel", "type": "cell-based", "details": "Acinetobacter baumannii, read-out: MIC", "outline": "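CLSI M7-A7 broth microdilution in Mueller Hinton Broth, inoculum 5×10^5 CFU/mL, 20 h at 35 C in ambient air. Panel of 29 A. baumannii isolates, 24 clinical carrying aminoglycoside-modifying enzymes or perm/efflux mechanisms and 5 susceptible.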"}, "[2]": {"assay": "14-day rat toxicology (nephrotoxicity), once-daily subcutaneous injection", "protocol": "The study design utilized once-daily subcutaneous injection administration to the rat for 14 days and assessment of reversibility of any changes following a 28-day recovery period.\nThe dose volume administered to each animal was 1 mL/kg."}, "[3]": {"tested_on": "Pseudomonas aeruginosa", "assay": "MIC, CLSI broth microdilution, Pseudomonas aeruginosa panel", "type": "cell-based", "details": "Pseudomonas aeruginosa, read-out: MIC", "outline": "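Reference CLSI broth microdilution: two-fold compound dilutions in Mueller Hinton Broth, mixed 1:1 with inoculum to final 5×10^5 CFU/mL. Incubated 20 h at 35 C in ambient air. Panel of 27 isolates: 22 clinical strains carrying aminoglycoside-modifying enzymes or perm/efflux resistance, 5 susceptible.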"}}, "note": "Read-outs that look alike come from different tables or passages of the source."}
{"compound": "NC[C@@H]1O[C@H](O[C@H]2[C@@H](O)[C@H](O[C@@H]3[C@@H](O)[C@H](NC(=O)[C@@H](O)CN)C[C@H](N)[C@H]3O[C@H]3O[C@H](CNCCO)[C@@H](O)C[C@H]3N)O[C@@H]2CO)[C@H](N)[C@@H](O)[C@@H]1O", "note": "[Compound 20]", "values": [{"measurement": "MIC", "setting": "[1]; A. baumannii clinical strain 1 (resistant clinical isolate)", "result": "1 to 8", "unit": "µg/mL"}, {"measurement": "MIC", "setting": "[1]; A. baumannii clinical strain 2 (resistant clinical isolate)", "result": "1 to 8", "unit": "µg/mL"}, {"measurement": "MIC", "setting": "[1]; A. baumannii clinical strain 3 (resistant clinical isolate)", "result": "≤ 1", "unit": "µg/mL"}, {"measurement": "MIC", "setting": "[1]; A. baumannii clinical strain 4 (resistant clinical isolate)", "result": "16 to 32", "unit": "µg/mL"}, {"measurement": "MIC", "setting": "[1]; A. baumannii clinical strain 5 (resistant clinical isolate)", "result": "≤ 1", "unit": "µg/mL"}, {"measurement": "MIC", "setting": "[1]; A. baumannii clinical strain 6 (resistant clinical isolate)", "result": "1 to 8", "unit": "µg/mL"}, {"measurement": "MIC", "setting": "[1]; A. baumannii clinical strain 7 (resistant clinical isolate)", "result": "≤ 1", "unit": "µg/mL"}, {"measurement": "MIC", "setting": "[1]; A. baumannii clinical strain 8 (resistant clinical isolate)", "result": "≤ 1", "unit": "µg/mL"}, {"measurement": "MIC", "setting": "[1]; A. baumannii clinical strain 9 (resistant clinical isolate)", "result": "≤ 1", "unit": "µg/mL"}, {"measurement": "MIC", "setting": "[1]; A. baumannii clinical strain 10 (resistant clinical isolate)", "result": "1 to 8", "unit": "µg/mL"}, {"measurement": "MIC", "setting": "[1]; A. baumannii clinical strain 11 (resistant clinical isolate)", "result": "≤ 1", "unit": "µg/mL"}, {"measurement": "MIC", "setting": "[1]; A. baumannii clinical strain 12 (resistant clinical isolate)", "result": "≤ 1", "unit": "µg/mL"}, {"measurement": "MIC", "setting": "[1]; A. baumannii clinical strain 13 (resistant clinical isolate)", "result": "≤ 1", "unit": "µg/mL"}, {"measurement": "MIC", "setting": "[1]; A. baumannii clinical strain 14 (resistant clinical isolate)", "result": "≤ 1", "unit": "µg/mL"}, {"measurement": "MIC", "setting": "[1]; A. baumannii clinical strain 15 (resistant clinical isolate)", "result": "≤ 1", "unit": "µg/mL"}, {"measurement": "MIC", "setting": "[1]; A. baumannii clinical strain 16 (resistant clinical isolate)", "result": "1 to 8", "unit": "µg/mL"}, {"measurement": "MIC", "setting": "[1]; A. baumannii clinical strain 17 (resistant clinical isolate)", "result": "1 to 8", "unit": "µg/mL"}, {"measurement": "MIC", "setting": "[1]; A. baumannii clinical strain 18 (resistant clinical isolate)", "result": "1 to 8", "unit": "µg/mL"}, {"measurement": "MIC", "setting": "[1]; A. baumannii clinical strain 19 (resistant clinical isolate)", "result": "1 to 8", "unit": "µg/mL"}, {"measurement": "MIC", "setting": "[1]; A. baumannii clinical strain 20 (resistant clinical isolate)", "result": "1 to 8", "unit": "µg/mL"}, {"measurement": "MIC", "setting": "[1]; A. baumannii clinical strain 21 (resistant clinical isolate)", "result": "≤ 1", "unit": "µg/mL"}, {"measurement": "MIC", "setting": "[1]; A. baumannii clinical strain 22 (resistant clinical isolate)", "result": "8 to 16", "unit": "µg/mL"}, {"measurement": "MIC", "setting": "[1]; A. baumannii clinical strain 23 (resistant clinical isolate)", "result": "≤ 1", "unit": "µg/mL"}, {"measurement": "MIC", "setting": "[1]; A. baumannii clinical strain 24 (resistant clinical isolate)", "result": "1 to 8", "unit": "µg/mL"}, {"measurement": "MIC", "setting": "[1]; A. baumannii strain 25 (susceptible)", "result": "≤ 1", "unit": "µg/mL"}, {"measurement": "MIC", "setting": "[1]; A. baumannii strain 26 (susceptible)", "result": "≤ 1", "unit": "µg/mL"}, {"measurement": "MIC", "setting": "[1]; A. baumannii strain 27 (susceptible)", "result": "≤ 1", "unit": "µg/mL"}, {"measurement": "MIC", "setting": "[1]; A. baumannii strain 28 (susceptible)", "result": "≤ 1", "unit": "µg/mL"}, {"measurement": "MIC", "setting": "[1]; A. baumannii strain 29 (susceptible)", "result": "≤ 1", "unit": "µg/mL"}, {"measurement": "mortality", "setting": "[2]; 10, 30 or 100 mg/kg/day subcutaneous, once daily, 14 days, Sprague-Dawley rat", "result": "did not result in mortality at any dose"}, {"measurement": "macroscopic or microscopic changes to the kidneys", "setting": "[2]; rat, in vivo", "result": "nor any significant macroscopic or microscopic changes to the kidneys"}, {"measurement": "MIC", "setting": "[3]; P. aeruginosa clinical strain 1 (resistant clinical isolate)", "result": "≤ 1", "unit": "µg/mL"}, {"measurement": "MIC", "setting": "[3]; P. aeruginosa clinical strain 2 (resistant clinical isolate)", "result": "≤ 1", "unit": "µg/mL"}, {"measurement": "MIC", "setting": "[3]; P. aeruginosa clinical strain 3 (resistant clinical isolate)", "result": "1 to 8", "unit": "µg/mL"}, {"measurement": "MIC", "setting": "[3]; P. aeruginosa clinical strain 4 (resistant clinical isolate)", "result": "1 to 8", "unit": "µg/mL"}, {"measurement": "MIC", "setting": "[3]; P. aeruginosa clinical strain 5 (resistant clinical isolate)", "result": "1 to 8", "unit": "µg/mL"}, {"measurement": "MIC", "setting": "[3]; P. aeruginosa clinical strain 6 (resistant clinical isolate)", "result": "1 to 8", "unit": "µg/mL"}, {"measurement": "MIC", "setting": "[3]; P. aeruginosa clinical strain 7 (resistant clinical isolate)", "result": "≤ 1", "unit": "µg/mL"}, {"measurement": "MIC", "setting": "[3]; P. aeruginosa clinical strain 8 (resistant clinical isolate)", "result": "1 to 8", "unit": "µg/mL"}, {"measurement": "MIC", "setting": "[3]; P. aeruginosa clinical strain 9 (resistant clinical isolate)", "result": "≤ 1", "unit": "µg/mL"}, {"measurement": "MIC", "setting": "[3]; P. aeruginosa clinical strain 10 (resistant clinical isolate)", "result": "1 to 8", "unit": "µg/mL"}, {"measurement": "MIC", "setting": "[3]; P. aeruginosa clinical strain 11 (resistant clinical isolate)", "result": "≤ 1", "unit": "µg/mL"}, {"measurement": "MIC", "setting": "[3]; P. aeruginosa clinical strain 12 (resistant clinical isolate)", "result": "≤ 1", "unit": "µg/mL"}, {"measurement": "MIC", "setting": "[3]; P. aeruginosa clinical strain 13 (resistant clinical isolate)", "result": "8 to 16", "unit": "µg/mL"}, {"measurement": "MIC", "setting": "[3]; P. aeruginosa clinical strain 14 (resistant clinical isolate)", "result": "≤ 1", "unit": "µg/mL"}, {"measurement": "MIC", "setting": "[3]; P. aeruginosa clinical strain 15 (resistant clinical isolate)", "result": "1 to 8", "unit": "µg/mL"}, {"measurement": "MIC", "setting": "[3]; P. aeruginosa clinical strain 16 (resistant clinical isolate)", "result": "≤ 1", "unit": "µg/mL"}, {"measurement": "MIC", "setting": "[3]; P. aeruginosa clinical strain 17 (resistant clinical isolate)", "result": "1 to 8", "unit": "µg/mL"}, {"measurement": "MIC", "setting": "[3]; P. aeruginosa clinical strain 18 (resistant clinical isolate)", "result": "1 to 8", "unit": "µg/mL"}, {"measurement": "MIC", "setting": "[3]; P. aeruginosa clinical strain 19 (resistant clinical isolate)", "result": "16 to 32", "unit": "µg/mL"}, {"measurement": "MIC", "setting": "[3]; P. aeruginosa clinical strain 20 (resistant clinical isolate)", "result": "16 to 32", "unit": "µg/mL"}, {"measurement": "MIC", "setting": "[3]; P. aeruginosa clinical strain 21 (resistant clinical isolate)", "result": "1 to 8", "unit": "µg/mL"}, {"measurement": "MIC", "setting": "[3]; P. aeruginosa clinical strain 22 (resistant clinical isolate)", "result": "1 to 8", "unit": "µg/mL"}, {"measurement": "MIC", "setting": "[3]; P. aeruginosa strain 23 (susceptible)", "result": "≤ 1", "unit": "µg/mL"}, {"measurement": "MIC", "setting": "[3]; P. aeruginosa strain 24 (susceptible)", "result": "≤ 1", "unit": "µg/mL"}, {"measurement": "MIC", "setting": "[3]; P. aeruginosa strain 25 (susceptible)", "result": "≤ 1", "unit": "µg/mL"}, {"measurement": "MIC", "setting": "[3]; P. aeruginosa strain 26 (susceptible)", "result": "≤ 1", "unit": "µg/mL"}, {"measurement": "MIC", "setting": "[3]; P. aeruginosa strain 27 (susceptible)", "result": "≤ 1", "unit": "µg/mL"}]}
